Here are results for 14 molecules from PubChem BioAssay (NCI).

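Cultured in 96-well plates, cells were exposed to test compound for 48 hours across five concentrations. TGI: total growth inhibition.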 Where a SMILES comes first, the peptide text is derived from it. The star is where a group is joined. Fmoc = O=C(OCC1c2ccccc2-c2ccccc21)*; Boc = CC(C)(C)OC(=O)*

Holding throughout (test): inhibition of tumour cell growth, NCI panel, 48 h
Assay [1] deals with EKVX NSCLC.
In assay [2] the test system is HCT-15 colon.
Assay [3] deals with M14 melanoma.
For assay [4], the system named is OVCAR-3 ovarian.
Assay [5] concerns OVCAR-4 ovarian.
Assay [6] has as its system RXF 393 renal.
Assay [7] concerns SN12C renal.
For assay [8], the system named is T-47D breast.
Assay [9] concerns TK-10 renal.
The test system of assay [10] is UACC-62 melanoma.

As to `O=C(C/C(=N/O)c1cc(-c2ccccc2)no1)c1ccccc1`, the TGI is greater than 100 µM in assay [1]; greater than 100 µM in assay [2]; greater than 100 µM in assay [3]; 41.9 µM in assay [4]; 65.8 µM in assay [5]; 41.2 µM in assay [6]. Moreover, the TGI in [7], in assay [8], in assay [9] and in assay [10] was greater than 100 µM in each case.

In the case of `O=C1C=C(OCCCCl)C(=O)c2c(O)ccc(O)c21`, the TGI came out at 3.19 µM in assay [1]; 1.58 µM in assay [2]; 0.341 µM in [3]; 1.38 µM in assay [4]; 1.71 µM in [5]; 3.09 µM in assay [6]. Moreover, the TGI in [7] stood at 1.12 µM; in assay [8], 4.63 µM; in [9], 3.46 µM; in assay [10], 0.882 µM.

`Brc1ccc2c(c1)-c1nc3nc4c(cc3cc1CC2)CCc1ccc(Br)cc1-4`: the TGI in assay [1], in assay [2], in [3], in assay [4], in assay [5] and in assay [6] was greater than 100 µM throughout. Besides, the TGI in [7], in assay [8] and in assay [9] was greater than 100 µM throughout.

Regarding `COc1ccc2cc(-c3nc(N)nc(N4N=C(C)CC4(C)C)n3)c(=N)oc2c1`, the TGI in assay [1] was 67.2 µM; in [2], 32 µM; in assay [3] it was 38.1 µM; in assay [4], 28.5 µM; in assay [5], 50.5 µM; in assay [6], 58.9 µM. Also, the TGI in [7] is 51.7 µM; in assay [8] it was 38.9 µM; in assay [9] it was 72 µM; in [10], 36.3 µM.

For `CCN(CC)CCNc1ccc2nnn3c4ccc(O)cc4c(=O)c1c23`, the TGI in assay [1] was 21.5 µM; in assay [2], 17.6 µM; in assay [3], 20.1 µM; in assay [4] it was 22.7 µM; in [5], 12.6 µM; in assay [6] it was 5.96 µM. Further, the TGI in assay [7] was 17.8 µM; in assay [8], 39.7 µM; in [9], 18.9 µM; in assay [10] it was 22.1 µM.

For `COC(=O)C1=C(C(=O)OC)SC2(S1)C(C(=O)OC)=C(C(=O)OC)Sc1c2ssc1=Nc1ccc(Cl)cc1`, the TGI in [1] is 2.8 µM; in assay [3], 2.79 µM; in [4] it was 2.71 µM; in [5], 2.43 µM; in assay [6], 0.894 µM; in [7], 1.8 µM. The TGI in assay [8] amounted to 3.45 µM; in [9] it was 2.69 µM; in assay [10], 2.42 µM.

Turning to `Cc1nnc(N)nc1/C=C/c1c(O)ccc2ccccc12`, the TGI in assay [1] was 36 µM; in assay [2], 44 µM; in assay [3] it was 44.1 µM; in assay [5], 61.1 µM; in assay [6] it was 36.2 µM; in assay [7], greater than 100 µM. For the same molecule, the TGI was greater than 100 µM in [8], greater than 100 µM in assay [9] and 85 µM in assay [10].

`CC(=O)C1=C(C)N(c2ccc(C)cc2)C2(O)C3=C(C(=O)c4ccccc4C3=O)C(O)=CC12Cl` (stereo not given): the TGI in [1] was greater than 100 µM; in assay [2], greater than 100 µM; in assay [3] it was greater than 100 µM; in [4] it was 45 µM; in assay [5], greater than 100 µM; in assay [6], 50.8 µM. For the same molecule, the TGI turned out to be 57.9 µM in [7], 69.1 µM in [8], 97 µM in assay [9] and 26.5 µM in assay [10].

As for `c1ccc2c(c1)CCc1[nH]c3c(c1-2)-c1ccccc1CC3`, the TGI in assay [1], in assay [2], in assay [3], in assay [4], in assay [5] and in assay [6] was greater than 100 µM throughout. Besides, the TGI in [7], in [8], in [9] and in assay [10] was greater than 100 µM each time.

With `CC(C)(C)OC(=O)NCCCCC(NC(=O)C(Cc1c[nH]c2ccccc12)NC(=O)OCC1c2ccccc2-c2ccccc21)C(=O)N1CCCC1C(=O)NCC(N)=O` (stereo not given) (Fmoc-WK(Boc)PG-NH2; configuration not given here), the TGI in assay [1], in [2], in assay [3], in [4], in [5] and in [6] was greater than 100 µM each time. The TGI in assay [7], in assay [8], in assay [9] and in assay [10] was greater than 100 µM in each case.

As for `C[C@@H](NC(=O)c1ccc(CNC(=O)/C=C/c2cccc(Oc3ccccc3)c2)cc1)c1ccccc1`, the TGI in [1] was greater than 65.8 µM; in [2], greater than 100 µM; in assay [3], greater than 100 µM; in assay [4] it was greater than 100 µM; in [5], greater than 100 µM; in [6] it was 12.2 µM. The TGI was greater than 100 µM in assay [7], greater than 100 µM in [8], greater than 89.2 µM in assay [9] and greater than 100 µM in [10].

`COC(=O)C1=C(C)C=C(N2CCOCC2)C(C(=O)OC)C1c1ccccc1` (stereo not given): the TGI in [1], in assay [2], in assay [3], in assay [4], in assay [5] and in assay [6] was greater than 10 µM in each case. The TGI in assay [7], in [8] and in assay [9] was greater than 10 µM throughout.

As to `CC(C)Cc1cc2c(cc1O)CCC1C2CC[C@@]2(C)C1CC[C@@H]2O` (stereo not given in full), the TGI in [1] stood at 26.3 µM; in assay [2], 21.7 µM; in assay [3], 19.3 µM; in assay [4] it was 16.6 µM; in assay [5] it was 24.3 µM; in [6], 16.3 µM. Also, the TGI worked out at 21.9 µM in assay [7], 23.4 µM in [8], 23.1 µM in assay [9] and 21.2 µM in assay [10].

`COP(=O)(OC)C(O)CC(C)C` (stereo not given): the TGI in assay [1], in assay [3], in [4], in assay [5], in assay [6] and in [7] was greater than 100 µM each time. Also, the TGI in assay [8], in assay [9] and in assay [10] was greater than 100 µM in each case.
